The experiment concerns the target Microphthalmia-associated transcription factor (Homo sapiens) (UniProt O75030). Kind of experiment: MITF inhibitors by FRET titration, dose response, biochemical, high throughput (AID 1259375).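 Also: FRET between CFP-tagged and YFP-tagged MITF protein partners.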 The settings on record: FRET biochemical assay, MITF inhibition.

Molecules are shown by their SMILES. The source made the active and inactive calls. No rule for the calls is given here. Bounds are passed on as bounds.

Chain of Microphthalmia-associated transcription factor (Homo sapiens) (O75030 whole entry, looked up): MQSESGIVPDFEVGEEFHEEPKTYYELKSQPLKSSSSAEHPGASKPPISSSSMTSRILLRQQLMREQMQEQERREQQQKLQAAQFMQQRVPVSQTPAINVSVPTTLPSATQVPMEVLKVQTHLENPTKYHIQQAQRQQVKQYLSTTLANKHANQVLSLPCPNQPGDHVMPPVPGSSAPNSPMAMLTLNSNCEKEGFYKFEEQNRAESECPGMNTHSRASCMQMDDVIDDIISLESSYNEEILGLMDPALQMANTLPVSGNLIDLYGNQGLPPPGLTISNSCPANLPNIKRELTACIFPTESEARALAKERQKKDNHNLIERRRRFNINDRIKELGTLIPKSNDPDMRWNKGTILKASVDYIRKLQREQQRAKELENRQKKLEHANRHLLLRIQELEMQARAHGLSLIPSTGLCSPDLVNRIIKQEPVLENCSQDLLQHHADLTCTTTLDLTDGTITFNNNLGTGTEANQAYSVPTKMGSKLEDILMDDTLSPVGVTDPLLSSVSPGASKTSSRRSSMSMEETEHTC

As to `C[C@@H](OCc1ccccc1)[C@@H]1NC(=O)[C@H]2CN(C(=O)NC3CCCCC3)CCN2C1=O`, the IC50 is > 6.48 µM (inactive). `O=C1N[C@@H](CSCc2ccccc2)C(=O)N2CCN(C(=O)NC3CCCCC3)C[C@H]12`: the IC50 is > 6.48 µM (inactive). With `Nc1cc(Br)cnc1N`, the IC50 is > 8.62 µM (inactive). With `NC(=O)NC(=O)COC(=O)c1c2c(nc3ccccc13)/C(=C\c1ccco1)CCC2` the figure was > 7.04 µM (inactive). As for `COc1cc(OC)c(OC)cc1CN1CCN(Cc2ccc(C)cc2)CC1`, the IC50 was > 5.76 µM (inactive). To `CCOC(=O)C1C2NC(=S)N(CC)C1(C)Oc1ccc(Cl)cc12` (stereo not drawn) belongs > 8.6 µM (inactive). In the case of `O=C1N[C@H](Cc2ccc(O)cc2)C(=O)N2CCN(C(=O)NCc3ccccc3)C[C@H]12`, the IC50 is > 6.48 µM (inactive). `CCc1ccc(NC(=O)CCc2nc(C3=CCN(C)CC3)no2)cc1`: the IC50 was > 6.48 µM (inactive). To `CCC[C@@H]1NC(=O)[C@H]2CN(C(=O)NC3CCCCC3)CCN2C1=O` belongs > 6.48 µM (inactive); to `CCC[C@@H]1NC(=O)[C@H]2CN(C(=O)NCc3ccccc3)CCN2C1=O`, > 6.48 µM (inactive); to `CN1CC[C@H](Oc2cc(-c3cn[nH]c3)ccc2NC(=O)OCc2ccccc2)C1`, > 6.48 µM (inactive). `O=C(Cn1ncn2cccc2c1=O)N1CCc2ccccc2C1`: the IC50 is > 6.48 µM (inactive). With `O=c1c2ccccc2nc(-c2ccccc2)n1-c1ccccc1O` the figure was > 6.5 µM (inactive).

Consider `c1ccc2c(c1)ncn2CC1CCN(Cc2cn3ccccc3n2)CC1`, for which the IC50 was > 6.48 µM (inactive). Consider `CCOC(=O)C1C2NC(=S)N(c3ccccc3)C1(C)Oc1cc(OC)ccc12` (stereo not drawn), for which the IC50 was > 6.4 µM (inactive). Take `O=C(Nc1ccc(-c2ccncc2)c(C(F)(F)F)c1)C1COc2ccccc2O1` (stereo not drawn): the IC50 is > 6.48 µM (inactive). As for `Oc1ccc(CCNc2cc(-c3cccs3)ncn2)cc1`, the IC50 is > 6.7 µM (inactive).

`O=C(O)c1ccc(CNC(=O)c2cocc2C(=O)O)o1`: the IC50 is > 7.32 µM (inactive).

For the compound `COc1cccc(COC(=O)Nc2ccc(-c3cn[nH]c3)cc2N(C)CCN(C)C)c1`, the IC50 was > 6.48 µM (inactive). Take `CNC(=O)COc1cc(-c2cn[nH]c2)ccc1NC(=O)C1COc2ccc(OC)cc2C1` (stereo not drawn): the IC50 is > 6.48 µM (inactive).

Regarding `CC(C)C[C@@H]1NC(=O)[C@H]2CN(C(=O)NC3CCCCC3)CCN2C1=O`, the IC50 was > 6.48 µM (inactive).

For the compound `CCN(CC)c1ccc(C(c2c(C)[nH][nH]c2=O)c2c(C)[nH][nH]c2=O)cc1`, the IC50 is 2.94 µM. With `N#CC1=c2/c(=C/c3ccco3)c(N)c(C#N)n2C(=O)C(c2ccco2)S1` (stereo not drawn) the figure was 2.64 µM; with `Cc1cc(O)c2c(c1)Cc1cccc(O)c1C2=O`, > 6.48 µM (inactive).

Regarding `O=C(NCc1ccccc1)N1CCN2C(=O)[C@@H]3CCCN3C(=O)[C@H]2C1`, the IC50 was > 6.48 µM (inactive). To `O=C(CCCCC1SCC2NC(=O)NC21)NC1(c2ccc3c(c2)OCO3)CCCC1` (stereo not drawn) belongs > 6.48 µM (inactive). For the compound `O=c1[nH]c(-c2ccco2)nc2sc3c(c12)CCCC3`, the IC50 is > 9.74 µM (inactive). Take `CSc1ccc(C(=O)O)s1`: the IC50 is > 10.2 µM (inactive). For the compound `Cc1ccc(C(=O)N/C(=C/c2ccc([N+](=O)[O-])o2)C(=O)O)cc1`, the IC50 is > 5.88 µM (inactive). To `CCCCCCCCCCCCCCCC(=O)OC[C@H](O)[C@H]1OC(=O)C(=O)C1O` (stereo partly drawn) belongs > 6.48 µM (inactive); to `CC(C)C[C@@H]1NC(=O)[C@H]2CN(C(=O)NCc3ccccc3)CCN2C1=O`, > 6.48 µM (inactive); to `O=C(OC1CCCC1=O)c1ccc(S(=O)(=O)N2CCCCC2)cc1` (stereo not drawn), > 6.64 µM (inactive). Turning to `Cc1ccc(C(=O)Nc2ccc([N+](=O)[O-])cn2)o1`, the IC50 was > 6.48 µM (inactive).
